The record followed here is PubChem BioAssay (NCI).

Values joined by “and” are separate entries in the source; they are usually repeats but may differ in a detail not shown here. Identical values can stand only once.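 Results reflect a 48-hour exposure of cells in 96-well plates to compound at five concentrations. GI50 marks 50% less growth. Definition used: TGI = concentration required for complete inhibition of growth.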

One may read the GI50 as the concentration at which growth is held to half of that of the control. Usually TGI stands for the concentration giving total growth inhibition. Lower therefore signals more potent growth arrest.

Some test systems named below: MDA-MB-435; NCI/ADR-RES ovarian; PC-3 prostate.
Assay in all cases: DTP human tumour cell line panel, 48 h

As to `c1ccc2[nH]c(-c3ccc(Nc4nc(N5CCCCC5)nc(N5CCOCC5)n4)cc3)nc2c1`, the figures for the GI50 with MDA-MB-435, in the assay on NCI/ADR-RES ovarian and with PC-3 prostate were 2.06 µM, 4.69 µM and 3.05 µM, respectively. Besides, the TGI came out at 4.59 µM in the assay on MDA-MB-435, 55.2 µM in the assay on NCI/ADR-RES ovarian and 9.13 µM in the assay with PC-3 prostate.
As to `CC1(C)CC2C(=O)c3ccccc3NC2c2ccccc21` (configuration not stated), the TGI in the assay on NCI/ADR-RES ovarian and in the assay with PC-3 prostate was over 100 µM in each case.
In the case of `Cc1ccc(-c2nc3nc(-c4ccc(F)cc4)nc(N4CCCNCC4)c3o2)cc1`, the GI50 was 1.71 µM in the assay with MDA-MB-435, 1.91 µM in the assay on NCI/ADR-RES ovarian and 1.56 µM in the assay with PC-3 prostate. The concentration for total growth inhibition (TGI) was 3.13 µM with MDA-MB-435, 3.63 µM in the assay on NCI/ADR-RES ovarian and 3.18 µM in the assay with PC-3 prostate.
For `Cc1ccc(NC(=O)c2cc(S(=O)(=O)N3C(=O)NC(=O)NS3(=O)=O)c(S)cc2Cl)cc1`, the values for the GI50 with MDA-MB-435, with NCI/ADR-RES ovarian and with PC-3 prostate were 17.1 µM, over 100 µM and 32.3 µM, respectively. Also, the TGI with MDA-MB-435 is 35.7 µM; in the assay with NCI/ADR-RES ovarian it was over 100 µM; with PC-3 prostate, over 100 µM.
As to `CN1/C(=C\C=C\C2=[N+](C)c3ccccc3C2(C)C)C(C)(C)c2ccccc21`, the GI50 is 0.0739 µM in the assay with MDA-MB-435, 1.29 µM in the assay on NCI/ADR-RES ovarian and 0.0455 µM in the assay on PC-3 prostate. For the same compound, the TGI in the assay with MDA-MB-435 is 0.936 µM; with NCI/ADR-RES ovarian it was 4.97 µM; in the assay on PC-3 prostate it was 5.97 µM.
With `Cn1cc(C2=C(c3cn(C4CCN(Cc5ccccn5)CC4)c4ccccc34)C(=O)NC2=O)c2ccccc21`, the GI50 in the assay on MDA-MB-435 is 2.87 µM; in the assay with NCI/ADR-RES ovarian it was 4.34 µM; with PC-3 prostate, 3.97 µM. The concentration for total growth inhibition (TGI) in the assay on MDA-MB-435, with NCI/ADR-RES ovarian and with PC-3 prostate was over 100 µM in each case.
For `CCCCn1c(-c2ccc(C(=O)O/N=C(\N)c3ccc4c(c3)OCO4)cc2)nc(-c2ccccc2)c1-c1ccccc1`, the GI50 in the assay with MDA-MB-435 is 1.93 µM; in the assay with NCI/ADR-RES ovarian it was 1.52 µM; in the assay with PC-3 prostate, 2.59 µM. For the same compound, the TGI in the assay with MDA-MB-435 was 3.9 µM; in the assay on NCI/ADR-RES ovarian, 4.48 µM; with PC-3 prostate, over 100 µM.
For the compound `CCOC(=O)/C(C#N)=C\C=C(/Cl)c1ccc(Cl)cc1`, the GI50 is 10.5 µM with MDA-MB-435, 22 µM in the assay on NCI/ADR-RES ovarian and 15 µM with PC-3 prostate. The TGI was determined as 32.9 µM with MDA-MB-435, 44.6 µM in the assay on NCI/ADR-RES ovarian and 33.5 µM in the assay with PC-3 prostate.
In the case of `O=C1OCC2=C1C(c1ccccc1)c1cc3c(cc1N2CCO)OCO3` (configuration not stated), the GI50 with MDA-MB-435 was 0.563 µM; in the assay on NCI/ADR-RES ovarian it was 2.08 µM; with PC-3 prostate, 4.66 µM. For the same compound, the TGI was 3.25 µM in the assay on MDA-MB-435, 17.8 µM with NCI/ADR-RES ovarian and over 50 µM with PC-3 prostate.
As for `C=C1C(=O)O[C@H]2[C@H]1CC/C(C=Nc1c(N)cc(C(F)(F)F)cc1Br)=C\CC[C@@]1(C)O[C@@H]21`, the values for the GI50 in the assay with MDA-MB-435, in the assay on NCI/ADR-RES ovarian and in the assay on PC-3 prostate were 1.86 µM, 2.31 µM and 1.5 µM, respectively. The TGI in the assay with MDA-MB-435 is 5.74 µM; in the assay on PC-3 prostate, 3.85 µM.
With `C(=N\Nc1nnn(Cc2ccccc2)n1)/c1ccccc1`, the concentration for 50% growth inhibition (GI50) was 0.367 µM in the assay on MDA-MB-435, 0.545 µM in the assay on NCI/ADR-RES ovarian and 6.82 µM with PC-3 prostate. The TGI with MDA-MB-435 is 2.76 µM; with NCI/ADR-RES ovarian, 8.78 µM; with PC-3 prostate it was over 100 µM.
Consider `COc1ccc(C(=O)c2ccc([As]=O)cc2)cc1` (configuration not stated), for which, in the assay on MDA-MB-435, the GI50 is 0.121 µM and the TGI is 0.254 µM. Further, in the assay on PC-3 prostate, the GI50 is 0.056 µM and the concentration for total growth inhibition (TGI) worked out at 0.185 µM.
As to `CCNC(=O)c1noc(-c2cc(C(C)C)c(O)cc2O)c1-c1ccc(CN2CCOCC2)cc1`, the GI50 in the assay with MDA-MB-435 was under 0.0167 µM; with NCI/ADR-RES ovarian, 0.313 µM; in the assay with PC-3 prostate, 0.0648 µM. Further, the results for the TGI in the assay on MDA-MB-435, in the assay on NCI/ADR-RES ovarian and in the assay on PC-3 prostate were 19.5 µM, 44.1 µM and 66.6 µM, respectively.
On to `C=C1C[C@@H]2CC[C@@]34C[C@H]5O[C@H]6[C@@H](O3)[C@H]3O[C@H](CC[C@@H]3O[C@H]6[C@@H]5O4)CC(=O)C[C@@H]3[C@@H](OC)[C@@H](C[C@H](O)CN)O[C@H]3C[C@H]3O[C@@H](CC[C@@H]1O2)C[C@@H](C)C3=C`, for which the GI50 in the assay on MDA-MB-435 is under 0.01 µM; in the assay on NCI/ADR-RES ovarian it was 2.69 µM; with PC-3 prostate it was under 0.01 µM. The TGI in the assay on MDA-MB-435 is under 0.01 µM; in the assay with NCI/ADR-RES ovarian, over 100 µM.
On to `O=c1c(F)cn(Cc2ccccc2CCl)c(=O)n1Cc1ccccc1CCl`, for which the GI50 was 1.68 µM in the assay with MDA-MB-435, 2.97 µM in the assay with NCI/ADR-RES ovarian and 2.54 µM with PC-3 prostate. The TGI with MDA-MB-435 was determined as 3.4 µM; in the assay on NCI/ADR-RES ovarian, 11.8 µM; in the assay on PC-3 prostate, 8.83 µM.
On to `C=C1C(=O)O[C@H]2[C@H]1CC/C(COC(=O)NCC(C)c1ccc(CC(C)C)cc1)=C\CC[C@@]1(C)O[C@@H]21` (some centres not stated), for which the GI50 in the assay with MDA-MB-435 was 1.24 µM; in the assay with NCI/ADR-RES ovarian, 3.54 µM; in the assay with PC-3 prostate, 0.691 µM. Further, the results for the TGI with MDA-MB-435, with NCI/ADR-RES ovarian and in the assay on PC-3 prostate were 4.86 µM, 10.1 µM and 1.76 µM, respectively.
Turning to `Nc1ccc(/C=C/C(=O)NCc2cc3cc(-c4ccc(C(=O)N5CCC(F)(F)CC5)cc4)cc(-c4ccc(F)cc4)c3o2)cn1`, the results for the GI50 in the assay with MDA-MB-435, with NCI/ADR-RES ovarian and in the assay on PC-3 prostate were 0.752 µM, 4.91 µM and 0.534 µM, respectively. Also, the TGI in the assay with MDA-MB-435, with NCI/ADR-RES ovarian and in the assay with PC-3 prostate was over 100 µM in each case.
Consider `O=C(N/N=C/c1ccccc1O)c1ccccc1`, for which the GI50 was 4.68 µM in the assay with MDA-MB-435, 1.94 µM in the assay with NCI/ADR-RES ovarian and 6.53 µM in the assay on PC-3 prostate. In addition, the figures for the TGI in the assay with MDA-MB-435, in the assay on NCI/ADR-RES ovarian and with PC-3 prostate were over 100 µM, 27.6 µM and over 100 µM, respectively.
For the compound `Cc1cc(I)cc(CN(C)CCCN2CCCC2)c1O`, the GI50 in the assay on MDA-MB-435 was 12.9 µM; in the assay with NCI/ADR-RES ovarian, 36.7 µM; in the assay on PC-3 prostate, 25 µM. For the same compound, the results for the TGI in the assay on MDA-MB-435, in the assay with NCI/ADR-RES ovarian and in the assay with PC-3 prostate were 28.6 µM, over 100 µM and 73.7 µM, respectively.
With `CCCCCCCCCCCCCCCC[N+]1(C)CCOCC1`, in the assay with NCI/ADR-RES ovarian, the GI50 was 18.1 µM and the concentration for total growth inhibition (TGI) worked out at 44.9 µM. In the assay on PC-3 prostate, the GI50 is 0.655 µM and the TGI was 2.43 µM.
As for `COc1ccc(OC)c(Cn2cc3c(c2-c2ccccc2)CCc2cnoc2-3)c1`, the GI50 in the assay on MDA-MB-435 was 2.18 µM; in the assay on NCI/ADR-RES ovarian, 2.48 µM; in the assay on PC-3 prostate, 8.73 µM. Further, the values for the TGI in the assay on MDA-MB-435, with NCI/ADR-RES ovarian and with PC-3 prostate were 9.11 µM, 7.55 µM and over 100 µM, respectively.
On to `O=C(N[C@@H](C[Se][Se]C[C@H](NC(=O)c1ccc(Br)cc1F)C(=O)O)C(=O)O)c1ccc(Br)cc1F`, for which the GI50 with MDA-MB-435, in the assay with NCI/ADR-RES ovarian and with PC-3 prostate was over 100 µM throughout. The total growth inhibition concentration (TGI) in the assay with MDA-MB-435, with NCI/ADR-RES ovarian and in the assay with PC-3 prostate was over 100 µM in each case.
Consider `O=S(=O)(CCCl)c1ccc(Cl)cc1`, for which the GI50 is 2.7 µM in the assay with MDA-MB-435, 3.86 µM in the assay with NCI/ADR-RES ovarian and 5.82 µM with PC-3 prostate. The figures for the TGI in the assay on MDA-MB-435, with NCI/ADR-RES ovarian and with PC-3 prostate were 12.6 µM, 40.6 µM and 22.9 µM, respectively.
As to `O=C(Nc1ccc(Cl)c(Cl)c1)NS(=O)(=O)c1cnccc1Oc1ccc(F)cc1`, the GI50 in the assay on MDA-MB-435 is 2.98 µM; in the assay with NCI/ADR-RES ovarian, 4.38 µM; in the assay on PC-3 prostate, 3.25 µM. Moreover, the results for the TGI in the assay on MDA-MB-435, in the assay on NCI/ADR-RES ovarian and in the assay on PC-3 prostate were 12.2 µM, over 100 µM and over 100 µM, respectively.
As to `CC(C)(C)OC(=O)NCCCCCCCn1c2c(c3ccccc3c1=O)C(=O)c1ccccc1-2`, the GI50 is 82 µM with MDA-MB-435, 26.1 µM in the assay on NCI/ADR-RES ovarian and 25.4 µM in the assay with PC-3 prostate. Moreover, the TGI in the assay on MDA-MB-435, with NCI/ADR-RES ovarian and with PC-3 prostate was over 100 µM in each case.
Take `O=C(O)[C@@H](Cc1ccc2ccccc2c1)NC(=O)n1c2ccccc2c2ccccc21`: the GI50 is 1.09 µM with MDA-MB-435, 2.83 µM in the assay with NCI/ADR-RES ovarian and 1.87 µM in the assay with PC-3 prostate. For the same compound, the values for the TGI with MDA-MB-435, in the assay on NCI/ADR-RES ovarian and with PC-3 prostate were 3.39 µM, 9.65 µM and 15.8 µM, respectively.
As to `COc1ccc2c(c1)/C(=C/c1cc(OC)c(OC)c(OC)c1)C(=O)N2`, the GI50 was 0.0318 µM with MDA-MB-435, 0.142 µM with NCI/ADR-RES ovarian and 0.364 µM with PC-3 prostate. In addition, the figures for the TGI in the assay on MDA-MB-435, in the assay on NCI/ADR-RES ovarian and in the assay with PC-3 prostate were 0.253 µM, 1.74 µM and over 100 µM, respectively.
For the compound `Oc1ccccc1-c1nn(CNc2ccccc2Cl)c(=S)o1`, the values for the GI50 with MDA-MB-435, in the assay with NCI/ADR-RES ovarian and in the assay on PC-3 prostate were over 100 µM, 18.2 µM and 99 µM, respectively. The TGI is over 100 µM in the assay on MDA-MB-435, 72.7 µM in the assay with NCI/ADR-RES ovarian and over 100 µM with PC-3 prostate.
Turning to `CCC1=CC2CN(C1)Cc1c([nH]c3ccccc13)[C@@](C(=O)OC)(c1cc3c(cc1OC)N(C)[C@H]1[C@@](O)(C(=O)OC)[C@H](OC(C)=O)[C@]4(CC)C=CCN5CC[C@]31[C@@H]54)C2` (some centres not stated), the GI50 was under 0.005 µM in the assay with MDA-MB-435; 1.05 µM and 1.85 µM with NCI/ADR-RES ovarian; under 0.005 µM in the assay on PC-3 prostate. Besides, the TGI with PC-3 prostate is 32.6 µM and > 100 µM.
